How the values were obtained:
TNFα = experiment: IRAK4 Monocyte TNFα Cell Based Assay; conditions: cryopreserved human monocytes, LPS 50 pg/ml stimulation, TNFα by TR-FRET
Protocol: The cell suspension was then plated at a density of 5,000 cells/well onto black 384 well Greiner clear bottom plates. Plates were pre-spotted with test compounds and serially diluted in DMSO where 40 nL/well were delivered using the Echo 550 acoustic liquid dispenser (Labcyte®) for a final DMSO concentration of 0.1%. Plated cells were treated with compound for 1 hour at 37° C. Cells were then stimulated with 50 pg/ml of LPS (Sigma) excluding outside columns of plate used for unstimulated cell control wells. Cells were incubated for an additional 4 hours at 37° C. Cells were then spun out of the media and 5 μl of sample were taken and analyzed for total TNFα content using the TR-FRET Human TNFα detection system (CisBio). This system utilizes two labeled antibodies (cryptate and XL665) that bind to two different epitopes of the TNFα molecule and produce FRET signal proportional to the concentration of TNFα in the sample. Detection antibodies are mixed 50:50 and 5 μL were dispensed into each well. Plates were covered with clear seals and incubated at room temp overnight. The following morning plates were read using an Envision 2103 Multilabeled reader (PerkinElmer) with excitation/emission/FRET emission at 340 nm/615 nm/665 nm, respectively. Fluorescence intensities at 615 nm and 665 nm emission wavelengths were expressed as a ratio (665 nm/615 nm). Percent of control was calculated as follows: % Control=100×(RatioSample−Ratio0% stimulation)/(Ratio100% Stimulation−Ratio0% stimulation) where unstimulated cells (0% stimulation) were the negative control and stimulated cells (100% stimulation) were used as the positive control.

IRAK4 enzyme = IRAK4 enzyme (Homo sapiens (Human), UniProt Q9NWZ3); experiment: IRAK4 Biochemical Assay (TR-FRET/HTRF); conditions: 0.75 nM IRAK4, 500 μM ATP, STK1 peptide
Protocol: IRAK4 enzyme (Carna Biosciences, Chuo-ku, Kobe, Japan) activity was measured by detecting phosphorylated peptide substrate formation using an antibody against the phosphorylated peptide substrate. This is a time-resolved fluorescence resonance energy transfer (TR-FRET) immunoassay, based on the STK1 KinEASE Assay (Cisbio, Bedford, Mass.). The assay was designed as a simple two-step, endpoint assay (a 5 μl enzyme reaction followed by 5 μl stop and detect Solution) performed in ProxiPlate-384 Plus plates (Perkin Elmer, Waltham, Mass.). Staurosporine, a non-selective kinase inhibitor was used as a positive control. Compounds diluted in DMSO were spotted into 384 well plates using a Labcyte® Echo 550 Liquid Handling System prior to addition of IRAK4 enzyme and peptide substrate. Reaction solutions were delivered using a Multi-Flo (Bio-Tek Instruments). The enzyme and peptide solution was incubated with compound for 15 minutes at room temp before the reaction was initiated by the addition of ATP. The standard 5 μl reaction mixture contained 500 μM ATP, 2 μM peptide (STK1 Peptide), 0.75 nM of IRAK4 in reaction buffer (50 mM HEPES, pH 7.0, 0.02% NaN3, 0.01% BSA, 0.1 mM Orthovanadate, 5 mM MgCl2, 0.025% NP-40, 1 mM DTT). After 120 min of incubation at room temperature, 5 μl of Stop and Detect Solution (1:100 Cryptate labeled anti-phosphorylated peptide antibody solution and 125 nM Tracer in a 50 mM HEPES pH 7.0 detection buffer containing sufficient EDTA) was added. The plate was then further incubated for 60 minutes at room temperature and read on Envision 2103 Multilabeled reader (PerkinElmer) with excitation/emission/FRET emission at 340 nm/615 nm/665 nm, respectively. Fluorescence intensities at 615 nm and 665 nm emission wavelengths were expressed as a ratio (665 nm/615 nm). Percentage of inhibition was calculated as below: % Inhibition=100×(RatioSample−Ratio0% Inhibition)/(Ratio100% Inhibition−Ratio0% Inhibition)
The 0% inhibition value comes from control wells lacking inhibitor. The 100% inhibition value comes from control wells containing a saturating amount of known inhibitor staurosporine.

Chain of IRAK4 enzyme (Q9NWZ3 whole entry): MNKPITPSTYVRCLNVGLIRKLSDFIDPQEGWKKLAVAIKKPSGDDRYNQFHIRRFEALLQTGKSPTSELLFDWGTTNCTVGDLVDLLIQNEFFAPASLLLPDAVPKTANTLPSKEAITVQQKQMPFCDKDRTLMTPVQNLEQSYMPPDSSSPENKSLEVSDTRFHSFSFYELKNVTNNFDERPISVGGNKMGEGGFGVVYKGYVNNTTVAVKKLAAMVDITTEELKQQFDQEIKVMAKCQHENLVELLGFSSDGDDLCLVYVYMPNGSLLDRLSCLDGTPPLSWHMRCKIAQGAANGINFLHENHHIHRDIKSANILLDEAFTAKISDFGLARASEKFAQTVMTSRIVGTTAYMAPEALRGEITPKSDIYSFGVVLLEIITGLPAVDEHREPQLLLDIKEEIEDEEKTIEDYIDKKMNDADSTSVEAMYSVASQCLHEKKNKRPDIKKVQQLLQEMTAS

EC50 (TNFα) [nM]	IC50 (IRAK4 enzyme) [nM]	EC50 (TNFα; Monocyte) [nM]	Compound
49	2	–	CNc1cc(-c2ccc3cc(C#N)cnn23)ncc1-c1cn([C@H]2CC[C@H](NC(=O)N3CCOCC3)CC2)nn1 [Compound 18, N-((1r,4r)-4-(4-(6-(3-cyanopyrrolo[1,2-b]pyridazin-7-yl)-4-(methylamino)pyridin-3-yl)-1H-1,2,3-triazol-1-yl)cyclohexyl)morpholine-4-carboxamide]
33	1	–	COC(=O)NC[C@H]1C[C@H](Nc2cc(-c3ccc4cc(C#N)cnn34)ncc2-c2cn(CC#N)nn2)C1 [Compound 16, methyl (((1r,3r)-3-((5-(1-(cyanomethyl)-1H-1,2,3-triazol-4-yl)-2-(3-cyanopyrrolo[1,2-b]pyridazin-7-yl)pyridin-4-yl)amino)cyclobutyl)methyl)carbamate]
–	< 1	3	CC(C)(O)[C@H](F)Cn1cc(-c2cnc(-c3ccc4cc(C#N)cnn34)cc2NC23CCC(O)(CC2)CC3)nn1 [Compound 25, (R)-7-(5-(1-(2-fluoro-3-hydroxy-3-methylbutyl)-1H-1,2,3-triazol-4-yl)-4-((4-hydroxybicyclo[2.2.2]octan-1-yl)amino)pyridin-2-yl)pyrrolo[1,2-b]pyridazine-3-carbonitrile]
–	11	302	CNc1cc(-c2ccc3cc(C#N)cnn23)ncc1-c1cn(CC(F)(F)F)nn1 [Compound 24, 7-(4-(methylamino)-5-(1-(2,2,2-trifluoroethyl)-1H-1,2,3-triazol-4-yl)pyridin-2-yl)pyrrolo[1,2-b]pyridazine-3-carbonitrile]
–	< 1	30	CC(C)Nc1cc(-c2ccc3cc(C#N)cnn23)ncc1-c1cn(C[C@@H](F)C(C)(C)O)nn1 [Compound 49, (R)-7-(5-(1-(2-fluoro-3-hydroxy-3-methylbutyl)-1H-1,2,3-triazol-4-yl)-4-(isopropylamino)pyridin-2-yl)pyrrolo[1,2-b]pyridazine-3-carbonitrile]
–	< 1	58	CC(C)Nc1cc(-c2ccc3cc(C#N)cnn23)ncc1-c1cn(C2CCOCC2)nn1 [Compound 59, 7-(4-(isopropylamino)-5-(1-(tetrahydro-2H-pyran-4-yl)-1H-1,2,3-triazol-4-yl)pyridin-2-yl)pyrrolo[1,2-b]pyridazine-3-carbonitrile]
–	–	5	COC(=O)NC[C@H]1C[C@H](Nc2cc(-c3ccc4cc(C#N)cnn34)ncc2-c2cn([C@H]3CC[C@H](NC(=O)N4CCOCC4)CC3)nn2)C1 [Compound 17, methyl (((1R,3r)-3-((2-(3-cyanopyrrolo[1,2-b]pyridazin-7-yl)-5-(1-((1r,4R)-4-(morpholine-4-carboxamido)cyclohexyl)-1H-1,2,3-triazol-4-yl)pyridin-4-yl)amino)cyclobutyl)methyl)carbamate]
–	–	31	CC(C)Nc1cc(-c2ccc3cc(C#N)cnn23)ncc1-n1cc(CCC(C)(C)O)nn1 [Compound 62, 7-(5-(4-(3-hydroxy-3-methylbutyl)-1H-1,2,3-triazol-1-yl)-4-(isopropylamino)pyridin-2-yl)pyrrolo[1,2-b]pyridazine-3-carbonitrile]
–	16	–	CNc1cc(-c2ccc3cc(C#N)cnn23)ncc1-c1cn([C@H]2CC[C@H](NC(=O)OC(C)(C)C)CC2)nn1 [Compound 23, tert-butyl ((1r,4r)-4-(4-(6-(3-cyanopyrrolo[1,2-b]pyridazin-7-yl)-4-(methylamino)pyridin-3-yl)-1H-1,2,3-triazol-1-yl)cyclohexyl)carbamate]
–	–	148	CC(=O)N1CCC(c2cn(-c3cnc(-c4ccc5cc(C#N)cnn45)cc3NC(C)C)nn2)CC1 [Compound 63, 7-(5-(4-(1-acetylpiperidin-4-yl)-1H-1,2,3-triazol-1-yl)-4-(isopropylamino)pyridin-2-yl)pyrrolo[1,2-b]pyridazine-3-carbonitrile]
–	–	28	CC(C)(O)CCn1cc(-c2cnc(-c3ccc4cc(C#N)cnn34)cc2NC2COC2)nn1 [Compound 11, 7-(5-(1-(3-hydroxy-3-methylbutyl)-1H-1,2,3-triazol-4-yl)-4-(oxetan-3-ylamino)pyridin-2-yl)pyrrolo[1,2-b]pyridazine-3-carbonitrile]

— US11053250B2, “Pyrrolo[1,2-b]pyridazine derivatives” (Gilead Sciences, Inc., priority 2018, dated 2021)
